Data taken from patent US10993983B2, “Cyclic peptide epitopes and small-molecule mimics for inducing autophagy” (TRUSTEES OF TUFTS COLLEGE, priority 2016, dated 2021).
Marks after values point to notes of the source that are not given here. Bridges are numbered along the chain shown (N, C = ends). Where no end group is shown, it is not given here. [ ]: non-standard residue; d: D form. MP = not defined here

Columns and labels:
p62 = p62 degradation assay (p62/actin immunoblot);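 for Activity (μM) 10, p62/actin assay activity: HeLa cells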;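 for Activity (μM) 100, p62/actin assay activity: HeLa cells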;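 for Activity (μM) 20, p62/actin assay activity: HeLa cells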;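 for Activity (μM) 30, p62/actin assay activity: HeLa cells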;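 for Activity (μM) 50, p62/actin assay activity: HeLa cells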; assay type: cell-based; design: key: −: activity not reported; 0: decreased vs. WT; +: similar to WT; ++: modest increase vs. WT; +++: significant increase vs. WT; conditions: for Activity (μM) 30, p62/actin assay activity: 30 μM; for Activity (μM) 50, p62/actin assay activity: 50 μM; for Activity (μM) 10, starred cell, p62/actin assay activity: Table 8, 10 μM marked * (footnote: data taken at 20 instead of 30 μM); for Activity (μM) 100, p62/actin assay activity: 100 μM; for Activity (μM) 10, p62/actin assay activity: 10 μM
Experimental: (§1) Cells were treated with peptide in OPTI-MEM (Thermo Scientific) acidified with 0.15% (v/v) 6N HCl for 3 hour. Cells were rinsed with Dulbecco's phosphate buffered saline (PBS) and lysed in lysis buffer (20 mM HEPES, 150 mM NaCl, 1 mM EDTA, 1% Triton X-100, protease inhibitor cocktail (Roche) on ice for 1 hour. Cell lysates were centrifuged at 16,000 g for 10 min at 4° C. and analyzed by SDS-PAGE and transferred to PVDF membranes. The membranes were blocked 5% non-fat dry milk (NFDM) in PBST (PBS+0.05% Tween-20) for 1 hour, then incubated overnight at 4° C. with primary antibody in 5% NFDM in PBST. The blots were washed with PBST and incubated with HRP-conjugated secondary antibodies diluted in 5% NFDM in PBST for 1 hour at room temperature. Membranes were washed with PBST and visualized with SuperSignal West Pico Chemiluminescent Substrate (Thermo Scientific). Semi-quantitative results were obtained by noting the lowest concentration at which both p62 degradation and LC3-I to LC3-II conversion were observed.
(§2) Compounds 1-10 were evaluated using the assays described in Examples 4 and 5. Activity for each compound was measured in the p62 degradation assay and the LC3 marker assay as described herein. The activity at each concentration of peptide is given as, for example, (0/+) where 0 would be the p62/actin assay activity and + would be the LC3 assay activity.

LC3 = LC3 marker assay (LC3-I to LC3-II conversion immunoblot);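 for Activity (μM) 10, LC3 assay activity: HeLa cells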;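 for Activity (μM) 100, LC3 assay activity: HeLa cells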;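 for Activity (μM) 20, LC3 assay activity: HeLa cells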;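 for Activity (μM) 30, LC3 assay activity: HeLa cells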;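 for Activity (μM) 50, LC3 assay activity: HeLa cells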; assay type: cell-based; design: key: −: activity not reported; 0: decreased vs. WT; +: similar to WT; ++: modest increase vs. WT; +++: significant increase vs. WT; conditions: for Activity (μM) 30, LC3 assay activity: 30 μM; for Activity (μM) 50, LC3 assay activity: 50 μM; for Activity (μM) 10, starred cell, LC3 assay activity: Table 8, 10 μM marked * (footnote: data taken at 20 instead of 30 μM); for Activity (μM) 100, LC3 assay activity: 100 μM; for Activity (μM) 10, LC3 assay activity: 10 μM
Experimental: as §1, §2

[1] = Table 8, control compound T25, first symbol
[2] = Table 8, control compound T25, second symbol
[3] = Table 3, control vehicle, first symbol
[4] = Table 3, control vehicle, second symbol
[5] = Table 6, control DMSO, first symbol
[6] = Table 6, control DMSO, second symbol

| Sequence | Activity (μM) 30, p62/actin assay activity (p62; [1]) | Activity (μM) 50, p62/actin assay activity (p62; [1]) | Activity (μM) 10, starred cell, p62/actin assay activity (p62; first symbol) | Activity (μM) 30, LC3 assay activity (LC3; [2]) | Activity (μM) 50, LC3 assay activity (LC3; [2]) | Activity (μM) 10, starred cell, LC3 assay activity (LC3; second symbol) | Activity (μM) 10, p62/actin assay activity (p62; [5]) | Activity (μM) 30, p62/actin assay activity (p62; [5]) | Activity (μM) 50, p62/actin assay activity (p62; [5]) | Activity (μM) 100, p62/actin assay activity (p62; [5]) | Activity (μM) 10, LC3 assay activity (LC3; [6]) | Activity (μM) 30, LC3 assay activity (LC3; [6]) | Activity (μM) 50, LC3 assay activity (LC3; [6]) | Activity (μM) 100, LC3 assay activity (LC3; [6]) | further results |
| --- | --- | --- | --- | --- | --- | --- | --- | --- | --- | --- | --- | --- | --- | --- | --- |
| VCNACFHIWH [Compound 69] | 0/0 | ++ | 0/0* | 0/0 | +++ | 0/0* | – | – | – | – | – | – | – | – | – |
| VCNACFHIWH [Compound 70] | 0/0 | 0 | 0/0* | 0/0 | + | 0/0* | – | – | – | – | – | – | – | – | – |
| VCNACFHIWH [Compound 71] | 0 | 0 | 0 | ++ | +++ | + | – | – | – | – | – | – | – | – | – |
| VCNACFHIWH [Compound 72] | 0/0 | + | 0/0* | 0/0 | ++ | 0/0* | – | – | – | – | – | – | – | – | – |
| VCNACFHIWH [Compound 73] | 0 | + | 0/0* | + | +++ | 0/0* | – | – | – | – | – | – | – | – | – |
| VCNACFHIWH [Compound 74] | 0 | +++/+++ | 0 | ++ | +++/+++ | + | – | – | – | – | – | – | – | – | – |
| VCNATCHIRIWH (H-V[dC]NAT[dC]HIRIWH; linker 2-6 via MP (inferred); not fully specified (C-terminus); reading uncertain) [Compound 37] | – | 0/0 | – | – | 0/0 | – | – | – | – | – | – | – | – | – | Activity (μM) 100, p62/actin assay activity (p62; [1]): 0/0; Activity (μM) 100, LC3 assay activity (LC3; [2]): 0/0 |
| VCNATCHIWH [Compound 2] | 0/0 | 0 | 0/0* | 0/0 | + | 0/0* | – | – | – | – | – | – | – | – | Activity (μM) 10, p62/actin assay activity (p62; Table 3, control vehicle, first symbol of cell): 0/0; Activity (μM) 20, p62/actin assay activity (p62; 20 μM, Table 3, control vehicle, first symbol): 0/0; Activity (μM) 50, p62/actin assay activity (p62; [3]): 0/0; Activity (μM) 100, p62/actin assay activity (p62; [3]): 0/0; Activity (μM) 10, LC3 assay activity (LC3; Table 3, control vehicle, second symbol of cell): 0/0; Activity (μM) 20, LC3 assay activity (LC3; 20 μM, Table 3, control vehicle, second symbol): 0/0; Activity (μM) 50, LC3 assay activity (LC3; [4]): 0/0; Activity (μM) 100, LC3 assay activity (LC3; [4]): 0/0 |
| VCNATCHIWH [Compound 18] | – | – | – | – | – | – | 0/0 | 0/0 | 0/0 | 0/0 | 0/0 | 0/0 | 0/0 | 0/0 | – |
| VCNATCHIWH [Compound 19] | – | – | – | – | – | – | + | ++ | ++ | +++ | 0 | 0 | + | + | – |
| VCNATCHIWH [Compound 20] | – | – | – | – | – | – | ++/++ | +++ | +++ | +++ | ++/++ | ++ | ++ | ++ | – |
| VCNATCHIWH [Compound 21] | – | – | – | – | – | – | ++ | +++ | +++ | +++ | 0 | 0 | 0 | 0 | – |
| VCNATCHIWH [Compound 22] | – | – | – | – | – | – | +++ | +++ | +++ | +++ | + | + | ++ | + | – |
| VCNATCHIWH [Compound 23] | – | – | – | – | – | – | + | ++/++ | +++ | +++ | 0 | ++/++ | ++ | ++ | – |
| VCNATCHIWH [Compound 24] | – | – | – | – | – | – | ++/++ | +++ | +++ | +++ | ++/++ | ++ | ++ | ++ | – |
| VCNATCHIWH [Compound 25] | – | – | – | – | – | – | ++/++ | ++/++ | +++/+++ | +++/+++ | ++/++ | ++/++ | +++/+++ | +++/+++ | – |
| VCNATCHIWH [Compound 26] | – | – | – | – | – | – | ++ | +++/+++ | +++/+++ | +++/+++ | +++ | +++/+++ | +++/+++ | +++/+++ | – |
